For assay [1], the system named is Aspergillus flavus IMF 47798. The format is cell-based.
Assay [2] deals with T1, bovine heart mitochondrial complex II (Bos taurus, UniProt P31039+P35720+Q3T189+Q95123).
T1 construct: bovine heart mitochondrial complex II; purchased Cayman Chemical; host or cells: bovine heart mitochondria (native tissue preparation supplied in the kit)
Kind of assay: MitoCheck Complex II Activity Assay (succinate dehydrogenase activity). The class given is biochemical. Conditions: bovine heart mitochondria.

The test system of assay [3] is Aspergillus flavus IMF 47798. The format is cell-based. The source holds these as a separate data set.
In the next assay the test system is aflR and pksA mRNA. Briefly: RT-qPCR of aflR and pksA mRNA levels in A. flavus. The class given is cell-based, Aspergillus flavus. The note with it: 0.05 mM, normalized to β-tubulin mRNA. How it is done: To test the effects of three octyl esters on the mRNA levels of aflR and pksA, A. flavus was cultured with octyl syringate (8), octyl paraben (12), or octyl gallate (14) at the concentrations of 0.05 mM. Subsequently, aflR and pksA mRNA levels were examined by quantitative PCR.
The lyophilized mycelia were ground under liquid nitrogen using a mortar and pestle. Total RNA was extracted with TRIzol reagent (Thermo Fisher Scientific, Waltham, MA, USA) and purified with the PureLink RNA Mini Kit (Thermo Fisher Scientific), according to manufacturer’s protocol. The cDNA was prepared with the ReverTra Ace qPCR RT Master Mix (TOYOBO, Osaka, Japan), according to manufacturer’s protocol. The cDNA derived from 0.05 μg of total RNA was used as a qPCR template. qPCR was carried out using FastStart Universal SYBR Green Master (Rox) (Roche, Basel, Switzerland) in a final volume of 25 μL for each reaction and an ABI 7300 Real-Time PCR System (Thermo Fisher Scientific). Two-step PCR conditions were as follows: after an initial incubation at 95 °C for 10 min, 40 cycles of 95 °C for 15 s and 60 °C for 1 min were performed. The amount of aflR and pksA mRNA were normalized to the amount of β-tubulin mRNA (control gene) in each sample. PCR primers used for each gene were as follows: β-tubulin 5′-[…]-3′ and 5′-[…]-3′; AflR 5′-[…]-3′ and 5′-[…]-3′; pksA 5′-[…]-3′ and 5′-[…]-3′.

Another assay has as its system A. flavus. The note with it: cited from earlier work.
The test system of another assay is A. flavus ATCC 9170. Details: method as in PMID 19232493. The note with it: cited from earlier work.
In another assay the test system is aflatoxin production. The note with it: cited from earlier work.
The mark [4] stands for this setting: read-out: IC50, mitochondrial complex II.

Data on 16 molecules can be found in publication PMC4926143 (Toxins, 2016).

Converted amounts (≈) assume the structure as drawn. “Also recorded” adds a separate entry of the source. Where two headings read alike, the source gives them in different places.

T1 sequence (P31039 44-665): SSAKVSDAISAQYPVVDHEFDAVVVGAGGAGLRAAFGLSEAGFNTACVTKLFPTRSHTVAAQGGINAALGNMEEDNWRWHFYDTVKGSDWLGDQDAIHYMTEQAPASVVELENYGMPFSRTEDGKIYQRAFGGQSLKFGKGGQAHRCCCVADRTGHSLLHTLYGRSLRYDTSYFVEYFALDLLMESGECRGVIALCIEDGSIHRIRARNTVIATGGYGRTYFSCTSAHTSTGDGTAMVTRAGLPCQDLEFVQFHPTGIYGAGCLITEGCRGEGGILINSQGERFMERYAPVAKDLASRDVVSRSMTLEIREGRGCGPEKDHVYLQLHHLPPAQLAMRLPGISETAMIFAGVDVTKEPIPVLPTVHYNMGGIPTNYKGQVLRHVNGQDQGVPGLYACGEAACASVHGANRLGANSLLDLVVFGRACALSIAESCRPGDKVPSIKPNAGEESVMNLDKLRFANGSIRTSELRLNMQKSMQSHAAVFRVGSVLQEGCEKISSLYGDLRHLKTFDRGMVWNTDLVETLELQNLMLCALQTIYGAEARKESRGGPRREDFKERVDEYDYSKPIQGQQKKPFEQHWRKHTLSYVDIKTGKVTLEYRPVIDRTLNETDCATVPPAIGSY
T1 sequence (Q3T189 29-280): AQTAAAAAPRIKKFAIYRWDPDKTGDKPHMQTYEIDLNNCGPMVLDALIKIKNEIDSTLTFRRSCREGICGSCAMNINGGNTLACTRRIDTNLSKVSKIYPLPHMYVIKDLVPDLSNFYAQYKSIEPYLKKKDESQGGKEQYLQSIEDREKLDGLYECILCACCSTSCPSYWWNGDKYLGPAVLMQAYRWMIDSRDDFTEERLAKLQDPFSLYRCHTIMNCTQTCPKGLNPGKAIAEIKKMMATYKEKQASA
T1 sequence (P35720 30-169): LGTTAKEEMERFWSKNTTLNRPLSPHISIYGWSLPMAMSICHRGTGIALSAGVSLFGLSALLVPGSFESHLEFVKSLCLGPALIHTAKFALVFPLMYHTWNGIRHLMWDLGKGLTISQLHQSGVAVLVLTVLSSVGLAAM
T1 sequence (Q95123 56-158): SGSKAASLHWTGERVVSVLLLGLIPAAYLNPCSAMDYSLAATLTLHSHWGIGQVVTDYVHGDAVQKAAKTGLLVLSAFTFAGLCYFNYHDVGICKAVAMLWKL

For `CCCOC(=O)c1cc(OC)c(O)c(OC)c1` [compound 3, propyl syringate], the “inhibition of aflatoxin production” value in assay [1] was “did not inhibit aflatoxin production”. In assay [2] (setting [4]), the IC50 is more than 20 mM.
As for `CCCCCCCCOC(=O)c1cc(OC)c(O)c(OC)c1` [compound 8, Octyl syringate], the “inhibition of aflatoxin production” value in assay [1] is on record as “inhibited aflatoxin production very strongly”. In addition, in assay [3], the “fungal mycelial weight after five and six days of cultivation” value is reported as “without changing”. In addition, the IC50 in assay [2] (setting [4]) stood at 0.34 mM. Also, in the assay on aflR and pksA mRNA, the “aflR mRNA level” value is “None of the three octyl esters affected” and the “pksA mRNA level” value was “None of the three octyl esters affected”.
With `CCCCCCCOC(=O)c1cc(OC)c(O)c(OC)c1` [compound 7, heptyl syringate], the “inhibition of aflatoxin production” value in assay [1] is recorded as “inhibited aflatoxin production very strongly”. The IC50 in assay [2] (setting [4]) came out at 1.3 mM.
For the molecule `CCCOC(=O)c1ccc(O)cc1` [compound 10, Propyl paraben], the “aflatoxin production inhibitory activity (comparison in words)” value in assay [1] is “more strongly than propyl syringate (3) and propyl gallate (15); also recorded: much weaker than that of heptyl paraben (11) and octyl paraben (12)”. For the same molecule, in assay [2] (setting [4]), the IC50 is more than 20 mM. Further, the “inhibition of aflatoxin production on a solid culture” value with A. flavus is given as “inhibit aflatoxin production”.
`CCCCCCCCOC(=O)c1cc(O)c(O)c(O)c1` [compound 14, Octyl gallate]: in assay [1], the “aflatoxin production inhibitory activity after five and six days of cultivation” value is “maintained”; the “inhibition of aflatoxin production” value was “as strongly as octyl syringate (8) and octyl paraben (12); also recorded: strongly inhibited”. Moreover, in assay [3], the “effect on fungal growth” value is “did not affect fungal growth” and the “effect on mycelial weight” value is “reduced the mycelial weight”. In addition, the IC50 in assay [2] (setting [4]) was 0.29 mM. In the assay on aflR and pksA mRNA, the “aflR mRNA level” value is “None of the three octyl esters affected” and the “pksA mRNA level” value was “None of the three octyl esters affected”. The “minimum inhibitory concentration (MIC)” value in the assay on A. flavus ATCC 9170 is listed as 0.063 mM (≈ 17.8 µg/mL).
`CCCCCCOC(=O)c1cc(OC)c(O)c(OC)c1` [compound 6, hexyl syringate]: in assay [1], the “inhibition of aflatoxin production” value is recorded as “inhibited aflatoxin production very strongly”. The IC50 in assay [2] (setting [4]) was 1.1 mM.
As for `CCCCCCCCOC(=O)c1ccc(O)cc1` [compound 12, octyl paraben], the “aflatoxin production inhibitory activity (comparison in words)” value in assay [1] is given as “strong”. Further, the “effect on fungal growth” value in assay [3] is given as “did not affect fungal growth”. Besides, in assay [2] (setting [4]), the IC50 was 0.16 mM. In the assay with aflR and pksA mRNA, the “aflR mRNA level” value was “None of the three octyl esters affected” and the “pksA mRNA level” value is “None of the three octyl esters affected”.
In the case of `Cc1ccccc1C(=O)Nc1cccc(OC(C)C)c1` [mepronil], the “inhibition of aflatoxin production by complex II inhibitors” value (from here on “inhibition … by complex II inhibitors”) in the assay with aflatoxin production was “inhibited aflatoxin production with selectivity”.
On to `CCOC(=O)c1ccc(O)cc1` [compound 9, ethyl paraben], for which the “aflatoxin production inhibitory activity (comparison in words)” value in assay [1] was “weak”.
As for `CCOC(=O)c1cc(OC)c(O)c(OC)c1` [compound 2, Ethyl syringate], in assay [1], the “inhibition of aflatoxin production” value is given as “did not inhibit aflatoxin production”. The IC50 in assay [2] (highest concentration 20 mM, read-out: IC50, mitochondrial complex II (symbol)) is more than 20 mM.
With `O=C(Nc1ccccc1-c1ccc(Cl)cc1)c1cccnc1Cl` [boscalid], the IC50 in assay [2] (setting [4]) was 0.019 mM; in the assay with aflatoxin production (read-out: IC50 of aflatoxin production inhibition) it was less than 10 nM. For the same molecule, in the assay with aflatoxin production, the “inhibition … by complex II inhibitors” value is listed as “inhibited aflatoxin production with selectivity”.
With `COc1[nH]c(=O)c(C(=O)[C@@H](C)C[C@H](C)[C@@H](Cl)CCl)c(O)c1OC` [atpenin A5], the “inhibition … by complex II inhibitors” value in the assay with aflatoxin production is “inhibited aflatoxin production with selectivity”.
For `CCCCCCCOC(=O)c1ccc(O)cc1` [compound 11, heptyl paraben], in assay [1], the “aflatoxin production inhibitory activity after five and six days of cultivation” value is “maintained”; the “inhibition of aflatoxin production” value was “strong”. In assay [3], the “effect on fungal growth” value is “did not affect fungal growth”.
Consider `CCCCCOC(=O)c1cc(OC)c(O)c(OC)c1` [compound 5, pentyl syringate], for which, in assay [1], the “inhibition of aflatoxin production” value is on record as “inhibited aflatoxin production very strongly”. For the same molecule, the IC50 in assay [2] (setting [4]) is 2.8 mM.
The corresponding values for `CCCCOC(=O)c1cc(OC)c(O)c(OC)c1` [compound 4, butyl syringate] are “strong inhibitory activity” and 9.7 mM.
`Cc1cc(O)c2c(c1)O[C@@]1(C)CC[C@H]3C(C)(C)CCC[C@]34CO[C@@H]2[C@H]41` [siccanin]: the “inhibition … by complex II inhibitors” value in the assay on aflatoxin production was “inhibited aflatoxin production with selectivity”.
